# Experimental data reported in patent US20240269139A1, “COMPOUNDS FOR TARGETED PROTEIN DEGRADATION OF KINASES” (DANA-FARBER CANCER INSTITUTE, INC., priority 2020, published 2024).
# Molecular target: protein kinases (human kinome)
# Type: cell-based
# Conditions: for Kinase hits: kinases significantly downregulated vs DMSO (fold change cutoff −1.25, P-value<0.01), ≤8 h, 0.1-5 μM degrader, 7 cell lines; for Total no. kinase hits: number of degraded kinases per library compound; for kinases the bifunctional compound degrades: as stated for the structure in the embodiments; for logFC: BTK (Q06187-2), experiment wp055; for logFC of BTK (Q06187-2): Experiment wp055
# Description: Although development of targeted protein degraders requires a POI binder, among already-liganded proteins such as kinases, it was hypothesized that different targets would have a different propensity for current approaches to degrader-mediated destruction, which was termed ‘degradability’. […] It was rationalized that the probability of identifying the same kinase as a false positive in multiple treatments is low, therefore this analysis served to also assess the robustness of our data and subsequent interpretations. […] Overall, 62 protein kinases were degraded in more than 10 independent treatments, and remarkably, 9 of these (CDK4, AURKA, FER, WEE1, BLK. LIMK2, CDK6, GAK, LIMK1) were each degraded in at least 40 of the 154 independent treatments, emphasizing their predisposition to induced degradation (FIG. 1G; Appendix I).
# Next, the frequency of degradation assessment was corrected for over-representation of molecules in the full dataset by omitting replicate profiling of compounds under different experimental conditions, to remove any bias. […] Unsurprisingly, the top degradable kinases mirror those from the previous analysis (CDK4, AURKA, FER, WEE1, BLK), confirming that in sufficiently large datasets, even with over-representation of certain molecules, frequency of degradation is a good measure of general tractability.
compound,measurement,value
CC(=O)c1c(C)c2cnc(Nc3ccc(N4CCN(CCCCNC(=O)CNc5cccc6c5C(=O)N(C5CCC(=O)NC5=O)C6=O)CC4)cn3)nc2n(C2CCCC2)c1=O (stereo not drawn) [BSJ-01-147],Kinase hits,"CDK4, CDK6, WEE1"
same,Total no. kinase hits,3
CC(=O)c1c(C)c2cnc(Nc3ccc(N4CCN(CCOCCOCCOCCNC(=O)COc5cccc6c5C(=O)N(C5CCC(=O)NC5=O)C6=O)CC4)cn3)nc2n(C2CCCC2)c1=O (stereo not drawn) [BSJ-03-123],Kinase hits,"BCKDK, CDK4, CDK6, COQ8A, PDK1, PDK2, PDK3, WEE1"
same,Total no. kinase hits,8
CC(=O)c1c(C)c2cnc(Nc3ccc(N4CCN(CCCCNC(=O)COc5cccc6c5C(=O)N(C5CCC(=O)NC5=O)C6=O)CC4)cn3)nc2n(C2CCCC2)c1=O (stereo not drawn) [BSJ-03-204],Kinase hits,"CDK4, CDK6, PDK1, WEE1"
same,Total no. kinase hits,4
CN(C)C(=O)c1cc2cnc(Nc3ccc(N4CCN(CCCCNC(=O)COc5cccc6c5C(=O)N(C5CCC(=O)NC5=O)C6=O)CC4)cn3)nc2n1C1CCCC1 (stereo not drawn) [BSJ-04-132],Kinase hits,"BCKDK, CDK4, CDK6, COQ8A, PDK1, PDK2, PDK3,"
same,Total no. kinase hits,3
O=C(COc1cccc2c1C(=O)N(C1CCC(=O)NC1=O)C2=O)NCCCCCCCN1CCc2cc(Nc3ncc(C4CC4)c(NCCCNC(=O)C4CCC4)n3)ccc2C1 (stereo not drawn) [BSJ-04-178],kinases the bifunctional compound degrades,"AAK1, AURKA, AURKB. BMP2K, CDK10, CDK9, GAK, MARK2, MARK3, MARK4, SIK2, STK17A, STK17B, SNRK, ULK1, and WEE1"
same,Kinase hits,"AAK1, AURKA, AURKB, BMP2K, CDK10, CDK9, GAK, MARK2, MARK3, MARK4, SIK2, STKI7A, STK17B, SNRK, ULK1, WEE1"
same,Total no. kinase hits,16
Cc1ncsc1-c1ccc([C@H](C)NC(=O)[C@@H]2C[C@@H](O)CN2C(=O)[C@@H](NC(=O)CCCCCN2CCc3cc(Nc4ncc(C5CC5)c(NCCCNC(=O)C5CCC5)n4)ccc3C2)C(C)(C)C)cc1 [BSJ-05-026],Kinase hits,"AAK1, GAK, MARK2, MARK3, MARK4, RPS6KB1, SIK2, SIK3, SNRK, STKI7A, STKI7B, ULK1, WEE1"
same,Total no. kinase hits,13
"Cc1ccc(NC(=O)c2cccc(C(F)(F)F)c2)cc1N1Cc2cnc(Nc3ccc(N4CCN(CCCCCC(=O)N[C@H](C(=O)N5C[C@H](O)C[C@H]5C(=O)N[C@@H](C)c5ccc(-c6scnc6C)cc5)C(C)(C)C)CC4)nc3)nc2N(C)C1=O [DB1114, (2S,4R)-1-((S)-3,3-dimethyl-2-(6-(4-(5-((8-methyl-6-(2-methyl-5-(3-(trifluoromethyl)benzamido)phenyl)-7-oxo-5,6,7,8-tetrahydropyrimido[4,5-d]pyrimidin-2-yl)amino)pyridin-2-yl)piperazin-1-yl)hexanamido)butanoyl)-4-hydroxy-N—((S)-1-(4-(4-methylthiazol-5-yl)phenyl)ethyl)pyrrolidine-2-carboxamide]",Total no. kinase hits,31
Cc1ccc(NC(=O)c2cccc(C(C)(C)C#N)c2)cc1Nc1ccc2ncn(CCOCCOCCC(=O)N[C@H](C(=O)N3C[C@H](O)C[C@H]3C(=O)NCc3ccc(-c4scnc4C)cc3)C(C)(C)C)c(=O)c2c1 [DD-02-198],kinases the bifunctional compound degrades,MAPK14
same,Kinase hits,MAPK14
same,Total no. kinase hits,1
CC(C)(C)c1nc(-c2cccc(NS(=O)(=O)c3c(F)cccc3F)c2F)c(-c2ccnc(NCCOCCNC(=O)CCOCCOCCNc3cccc4c3CN(C3CCC(=O)NC3=O)C4=O)n2)s1 (stereo not drawn) [DD-03-107],kinases the bifunctional compound degrades,"BCKDK, COQ8A, LIMK1, PDK1, PDK2, and PDK3"
same,Kinase hits,"BCKDK, COQ8A, LIMK1, PDK1, PDK2, PDK3"
same,Total no. kinase hits,6
Nc1ncnc2c1c(-c1ccc(Oc3ccccc3)cc1)nn2[C@@H]1CCCN(C(=O)CCCN2CCN(CCNC(=O)CCOCCOCCNc3cccc4c3C(=O)N(C3CCC(=O)NC3=O)C4=O)CC2)C1 (stereo partly drawn) [DD-03-119],kinases the bifunctional compound degrades,"ABL2, BLK, CSK, FYN, LCK, SRC, and TEC"
same,Kinase hits,"ABL2, BLK, CSK, FYN, LCK, SRC, TEC"
same,Total no. kinase hits,3
Cc1c(NC(=O)c2ccc(C(C)(C)C)cc2)cccc1-c1cn(C)c(=O)c(Nc2ccc(C(=O)N3CCN(CCCCCCNC(=O)CNc4cccc5c4C(=O)N(C4CCC(=O)NC4=O)C5=O)CC3)cc2)n1 (stereo not drawn) [DD-03-171],Kinase hits,BTK
same,Total no. kinase hits,1
Cc1c(NC(=O)c2ccc(C(C)(C)C)cc2)cccc1-c1cn(C)c(=O)c(Nc2ccc(C(=O)N3CCN(CCCCCCNC(=O)COc4cccc5c4C(=O)N(C4CCC(=O)NC4=O)C5=O)CC3)cc2)n1 (stereo not drawn) [DD-04-118],Kinase hits,BTK
same,Total no. kinase hits,1
Cc1c(NC(=O)c2ccc(C(C)(C)C)cc2)cccc1-c1cn(C)c(=O)c(Nc2ccc(C(=O)N3CCN(CCCCCCNC(=O)CNc4cccc5c4C(=O)N(C4CCC(=O)NC4=O)C5=O)CC3)cc2)n1 (stereo not drawn) [DD.03.171],logFC,−3.077
same,logFC of BTK (Q06187-2),−3.077
Cc1c(NC(=O)c2ccc(C(C)(C)C)cc2)cccc1-c1cn(C)c(=O)c(Nc2ccc(C(=O)N3CCN(CCCCCCNC(=O)COc4cccc5c4C(=O)N(C4CCC(=O)NC4=O)C5=O)CC3)cc2)n1 (stereo not drawn) [DD.04.118],logFC,−3.263
same,logFC of BTK (Q06187-2),−3.263
COc1cc(N2CCN(CCOCCOCCC(=O)N[C@H](C(=O)N3C[C@H](O)C[C@H]3C(=O)N[C@@H](C)c3ccc(-c4scnc4C)cc3)C(C)(C)C)CC2)ccc1Nc1ncc2c(n1)N(C)c1ccccc1C(=O)N2CC(F)(F)F [FMF-03-178-1],Kinase hits,"BLK, CSK"
same,Total no. kinase hits,2
O=C1CCC(N2C(=O)c3cccc(NCCOCCOCCOCCOCCC(=O)Nc4cccc(CN5CCC(NC(=O)c6[nH]ncc6NC(=O)c6c(Cl)cccc6Cl)CC5)c4)c3C2=O)C(=O)N1 (stereo not drawn) [FMF-04-147-1],kinases the bifunctional compound degrades,"CDK11A, CDK9, CLK1, GSK3A, GSK3B, PIK3CG, and SGK3"
same,Kinase hits,"CDK11A, CDK9, CLK1, GSK3A, GSK3B, PIK3CG, SGK3"
same,Total no. kinase hits,7
"Cc1ncsc1-c1ccc([C@H](C)NC(=O)[C@@H]2C[C@@H](O)CN2C(=O)[C@@H](NC(=O)CCOCCOCCN2CCN(c3ccc(Nc4ncc(Cl)c(Nc5ccccc5S(=O)(=O)C(C)C)n4)cc3)CC2)C(C)(C)C)cc1 [FMF-06-098-1, (2S,4R)-1-((S)-2-(3-(2-(2-(4-(4-((5-chloro-4-((2-(isopropylsulfonyl)phenyl)amino)pyrimidin-1320 2-yl)amino)phenyl)piperazin-I-yl)ethoxy)ethoxy)propanamido)-3,3-dimethylbutanoyl)-4-1321 hydroxy-N—((S)-1-(4-(4-methylthiazol-5-yl)phenyl)ethyl)pyrrolidine-2-carboxamide]",kinases the bifunctional compound degrades,"AAK1, ABL2, AURKA, AURKB, BUB1B, CDC7, CDK1, CDK12, CDK13, CDK2, CDK4, CDk6, CDK7, CDK9, CHEK1, CSNK1D. EPHA1, FER, FGFR1, GAK, IRAK4, ITK, LIMK2, MAP4K2, MAP4K3, MAPK6, MAPK7, MARK4, MELK, PKN3, PLK4, PRKAA1, PTK2, PTK6, RPS6KA4, SIK2, STK35, TNK2. UHMK1, ULK1, and WEE1"
same,Kinase hits,"AAK1, ABL2, AURKA, AURKB, BUB1B, CDC7, CDK1, CDK12, CDK13, CDK2, CDK4, CDk6, CDK7, CDK9, CHEK1, CSNK1D, EPHA1, FER, FGFR1, GAK, IRAK4, ITK, LIMK2, MAP4K2, MAP4K3, MAPK6, MAPK7, MARK4, MELK, PKN3, PLK4, PRKAA1, PTK2, PTK6, RPS6KA4, SIK2, STK35, TNK2, UHMK1, ULK1, WEE1"
same,Total no. kinase hits,42
